From patent publication US7132504B2, “Hepatitis C virus inhibitors” (Bristol-Myers Squibb Company, priority 2003, dated 2006)

What was measured:
[1] = target: T1, NS3/4A protease complex, H77 strain (Hepatitis C virus genotype 1a, UniProt P27958, C1454S/C1711G); assay: Recombinant HCV NS3/4A protease complex FRET peptide assay, H77 strain; type: biochemical, HCV genotype 1a (H77)
T1 construct: DNA encoding the recombinant HCV NS3/4A protease complex (amino acids 1027 to 1711) for these strains; inferred from pET21b vector and Ni-NTA purification; made in house; host or cells: Escherichia coli BL21 (DE3), pET21b
T1 sequence (P27958 1027-1711 C1454S/C1711G, one chain of several): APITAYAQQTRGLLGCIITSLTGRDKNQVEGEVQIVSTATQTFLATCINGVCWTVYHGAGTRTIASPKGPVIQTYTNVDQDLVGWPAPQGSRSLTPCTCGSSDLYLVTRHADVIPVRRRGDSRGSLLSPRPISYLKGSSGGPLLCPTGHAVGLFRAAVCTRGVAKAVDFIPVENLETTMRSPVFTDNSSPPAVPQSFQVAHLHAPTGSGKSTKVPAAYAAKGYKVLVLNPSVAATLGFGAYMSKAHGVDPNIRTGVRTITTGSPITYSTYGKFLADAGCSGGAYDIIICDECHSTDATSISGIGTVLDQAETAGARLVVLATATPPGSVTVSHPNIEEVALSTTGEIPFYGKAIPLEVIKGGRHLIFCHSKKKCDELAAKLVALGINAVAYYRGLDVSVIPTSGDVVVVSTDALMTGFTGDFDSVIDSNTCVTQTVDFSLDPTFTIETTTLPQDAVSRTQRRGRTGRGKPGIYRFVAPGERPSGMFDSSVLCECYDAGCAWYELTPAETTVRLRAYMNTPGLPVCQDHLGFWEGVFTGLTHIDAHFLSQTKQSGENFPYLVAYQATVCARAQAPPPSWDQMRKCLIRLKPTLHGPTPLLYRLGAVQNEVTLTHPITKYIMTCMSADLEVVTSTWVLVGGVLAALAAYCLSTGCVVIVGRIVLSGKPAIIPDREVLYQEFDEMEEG
Text: The purpose of this in vitro assay was to measure the inhibition of HCV NS3 protease complexes, derived from the BMS strain, H77 strain or J416S strain, as described below, by compounds of the present invention. This assay provides an indication of how effective compounds of the present invention would be in inhibiting HCV proteolytic activity.
Serum from an HCV-infected patient was obtained from Dr. T. Wright, San Francisco Hospital. An engineered full-length cDNA (compliment deoxyribonucleic acid) template of the HCV genome (BMS strain) was constructed from DNA fragments obtained by reverse transcription-PCR (RT-PCR) of serum RNA (ribonucleic acid) and using primers selected on the basis of homology between other genotype 1a strains. From the determination of the entire genome sequence, a genotype 1a was assigned to the HCV isolate according to the classification of Simmonds et al. (See P Simmonds, K A Rose, S Graham, S W Chan, F McOmish, B C Dow, E A Follett, P L Yap and H Marsden, J. Clin. Microbiol., 31(6), 1493–1503 (1993)). […]

[2] = target: T2, human neutrophil elastase (HNE) (Homo sapiens, UniProt P08246); assay: Specificity assay, human neutrophil elastase; type: biochemical; conditions: 2 h enzyme-inhibitor pre-incubation
T2 construct: purchased Sigma
T2 sequence (P08246 30-267): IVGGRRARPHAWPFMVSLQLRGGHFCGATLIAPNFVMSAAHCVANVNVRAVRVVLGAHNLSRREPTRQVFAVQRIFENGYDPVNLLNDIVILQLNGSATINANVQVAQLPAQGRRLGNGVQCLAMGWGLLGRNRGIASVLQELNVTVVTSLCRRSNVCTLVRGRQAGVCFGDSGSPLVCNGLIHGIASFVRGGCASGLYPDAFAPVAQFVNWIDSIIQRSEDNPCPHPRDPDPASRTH
Experimental: The specificities of compounds of the present invention were determined against a variety of serine proteases: human neutrophil elastase (HNE), porcine pancreatic elastase (PPE) and human pancreatic chymotrypsin and one cysteine protease: human liver cathepsin B. In all cases a 96-well plate format protocol using colorimetric p-nitroaniline (pNA) substrate specific for each enzyme was used as described previously (PCT Patent Application No. WO 00/09543) with some modifications to the serine protease assays. All enzymes were purchased from Sigma while the substrates were from Bachem.
Each assay included a 2 h enzyme-inhibitor pre-incubation at room temperature followed by addition of substrate and hydrolysis to ˜30% conversion as measured on a Spectramax Pro microplate reader. Compound concentrations varied from 100 to 0.4 μM depending on their potency. […]
The percentage of inhibition was calculated using the formula: [1−((UVinh−UVblank)/(UVctl−UVblank))]×100 […]

C=CC1C[C@]1(NC(=O)[C@@H]1C[C@@H](Oc2cc(-c3ccccc3)nc3cc(OC)ccc23)CN1C(=O)[C@@H](NC(=O)OC)C(C)(C)C)C(=O)NS(=O)(=O)N(C)Cc1ccccc1 (some centres unmarked) [Compound 9]
IC50 [1]: 0.062 µM
IC50 [2]: 46 µM
